In brackets after ≈: the same amount, converted by molar mass.

One may read the MIC as the smallest concentration in the dilution series that meets the test's criterion for growth inhibition.

Common to all, as to type: cell-based
Assay [1] deals with Bacteroides thetiotaomicron ATCC 29741. Description: Antimicrobial susceptibility, broth microdilution MIC (CLSI), QC strain. Particulars: for MIC: Bacteroides, ATCC 29741 / ATCC 297415, read-out: MIC, QC ATCC 297415. The arrangement: MIC, QC ATCC 297415: unit not given beside the values.
For assay [2], the system named is Akkermansia muciniphila ATCC BAA-835. Description: Antimicrobial susceptibility, broth microdilution MIC (CLSI), type strain. Particulars: for MIC: Akkermansia muciniphila, ATCCBAA835, broth microdilution, read-out: MIC, test strain ATCC BAA-835. Background: Broth dilution looks for growth in wells or tubes with falling amounts of substance.
In assay [3] the test system is Akkermansia muciniphila EB-AMDK39 strain. Description: Antimicrobial susceptibility, broth microdilution MIC (CLSI), isolated strain. The following applies: for MIC: Akkermansia muciniphila, EBAMDK39STRAIN, read-out: MIC, test strain EB-AMDK39, broth microdilution.

`CO/N=C(\C(=O)N[C@@H]1C(=O)N2C(C(=O)O)=CCS[C@H]12)c1csc(N)n1` [CTZ, ceftizoxime]: the MIC in assay [1] was found to be 16 µg/mL (≈ 41.7 µM); in assay [2], 2 µg/mL (≈ 5.22 µM); in assay [3], 256 µg/mL (≈ 668 µM). The “Susceptibility category by MIC breakpoints, CTZ” value is listed as “S (≤32)” in assay [2] (ATCC BAA-835, CTZ breakpoints) and “R (≥128)” in assay [3] (EB-AMDK39, CTZ breakpoints).
With `COc1c(N2C[C@@H]3CCCN[C@@H]3C2)c(F)cc2c(=O)c(C(=O)O)cn(C3CC3)c12` [MXF, moxifloxacin], the MIC in assay [1] was 8 µg/mL (≈ 19.9 µM); in assay [2], > 32 µg/mL; in assay [3] it was > 32 µg/mL. The “Susceptibility category by MIC breakpoints, MXF” value in assay [2] (ATCC BAA-835, MXF breakpoints) is “R (≥8)”; in assay [3] (EB-AMDK39, MXF breakpoints), “R (≥8)”.
Consider `Cc1ncc([N+](=O)[O-])n1CCO` [MTZ, metronidazole], for which the figures for the MIC in assay [1], in assay [2] and in assay [3] were 2 µg/mL (≈ 11.7 µM), ≤ 0.25 µg/mL and 1 µg/mL (≈ 5.84 µM), respectively. Moreover, the “Susceptibility category by MIC breakpoints, MTZ” value in assay [2] (ATCC BAA-835, MTZ breakpoints) is “S (≤8)”; in assay [3] (EB-AMDK39, MTZ breakpoints) it was “S (≤8)”.
Regarding Piperacillin-tazobactam [PTZ], the “MIC, QC ATCC 297415” value in assay [1] (broth microdilution, QC strain) is 8/4. The “Susceptibility category by MIC breakpoints, PTZ” value in assay [2] (ATCC BAA-835, PTZ breakpoints) is recorded as “S (≤32/4)”; in assay [3] (EB-AMDK39, PTZ breakpoints) it was “S (≤32/4)”.
For `C[C@@H](O)[C@H]1C(=O)N2C(C(=O)O)=C(S[C@@H]3CN[C@H](C(=O)N(C)C)C3)[C@H](C)[C@H]12` [MEM, meropenem], the minimal inhibitory concentration (MIC) in assay [1] is 0.5 µg/mL (≈ 1.3 µM); in assay [2], 1 µg/mL (≈ 2.61 µM); in assay [3], 4 µg/mL (≈ 10.4 µM). Further, the “Susceptibility category by MIC breakpoints, MEM” value in assay [2] (ATCC BAA-835, MEM breakpoints) is recorded as “S (≤4)”; in assay [3] (EB-AMDK39, MEM breakpoints), “S (≤4)”.
For `CCC[C@@H]1C[C@@H](C(=O)N[C@@H]([C@H]2O[C@H](SC)[C@H](O)[C@@H](O)[C@H]2O)[C@H](C)Cl)N(C)C1` [CLI, clindamycin], the “Susceptibility category by MIC breakpoints, CLI” value is “S (≤2)” in assay [2] (ATCC BAA-835, CLI breakpoints) and “R (≥8)” in assay [3] (EB-AMDK39, CLI breakpoints). Besides, the figures for the MIC in assay [2] and in assay [3] were ≤ 0.125 µg/mL and > 64 µg/mL, respectively.
`O=C(N[C@H](CO)[C@H](O)c1ccc([N+](=O)[O-])cc1)C(Cl)Cl` [CHL, chloramphenicol]: the minimal inhibitory concentration (MIC) was 8 µg/mL (≈ 24.8 µM) in assay [1], 4 µg/mL (≈ 12.4 µM) in assay [2] and 8 µg/mL (≈ 24.8 µM) in assay [3]. In addition, the “Susceptibility category by MIC breakpoints, CHL” value in assay [2] (ATCC BAA-835, CHL breakpoints) is recorded as “S (≤8)”; in assay [3] (EB-AMDK39, CHL breakpoints) it was “S (≤8)”.

Source of the values: patent US20250057893A1, “PHARMACEUTICAL COMPOSITION FOR PREVENTING OR TREATING CANCER OR INFLAMMATORY DISEASE” (ENTEROBIOME INC., priority 2021, published 2025).
